Assay results from patent publication US20190321291A1, “3D Printing and Drug Delivery” (Biogelx Limited, priority 2016, published 2019).
Several values for one entry are separate records, joined by “and”; a condition that tells them apart may be missing. Equal entries are not always repeated.

Experiment: Drug release assay from Fmoc-FF/S hydrogel into PBS release buffer, HPLC analysis
Format: physicochemical
Conditions: for release profile from the hydrogel compared with control PBS solution: Fmoc-FF/S hydrogel; for duration of sustained release from the gel: 7-day study; for time over which significant drug concentration continued to be released: gel
Method: (§1) An 1100 Series high-performance liquid chromatography pump (Agilent, USA) was used for the analysis which was performed using acetonitrile with 0.1% TFA and water with 0.1% TFA. […] This concentration was kept constant until 16 mins; after that the gradient was decreased, reaching 40% (v/v) acetonitrile in water at 19 mins. The data was then processed manually using the software ‘Agilent Chemstation.’
The triplicate samples of release buffer were analysed by HPLC, and for the peaks corresponding to each model drug compound the peak area was measured. The average peak area was recorded, and using a standard curve prepared for each compound the concentration of each was determined.
At each of the specified time points the release buffer remaining in the wells was transferred to HPLC vials and stored at 4° C. until HPLC analysis was performed.
as §1, with “mins when” for “mins; after that”, “decreased to” for “decreased, reaching”
The triplicate samples of release buffer were analysed by HPLC, and for the peaks corresponding to each model drug compound the peak area was measured. The average peak area was recorded, and using standard curve prepared for each compound the concentration of each was determined.

[1] = 30 min, 2 mM control solution of drug in PBS, release buffer PBS 37° C.
[2] = 30 min, drug in Fmoc-FF/S gel, release buffer PBS 37° C.

release profile from the hydrogel compared with control PBS solution | Concentration (ug/mL) Control [1] [µg/mL] | Concentration (ug/mL) Gel [2] [µg/mL] | Concentration (ug/mL) Gel (3 h, Fmoc-FF/S gel) [µg/mL] | Concentration (ug/mL) Control (3 h, control solution in PBS) [µg/mL] | Concentration (ug/mL) Gel (6 h, Fmoc-FF/S gel) [µg/mL] | Concentration (ug/mL) Control (6 h, control solution in PBS) [µg/mL] | Concentration (ug/mL) Gel (9 h, Fmoc-FF/S gel) [µg/mL] | Concentration (ug/mL) Control (9 h, control solution in PBS) [µg/mL] | Concentration (ug/mL) Gel (24 h, Fmoc-FF/S gel) [µg/mL] | Concentration (ug/mL) Control (24 h, control solution in PBS) [µg/mL] | Concentration (ug/mL) Gel (48 h, Fmoc-FF/S gel) [µg/mL] | Concentration (ug/mL) Control (48 h, control solution in PBS) [µg/mL] | Concentration (ug/mL) Gel (72 h, Fmoc-FF/S gel) [µg/mL] | Concentration (ug/mL) Control (72 h, control solution in PBS) [µg/mL] | Concentration (ug/mL) Gel (5 d, Fmoc-FF/S gel) [µg/mL] | Concentration (ug/mL) Control (5 d, control solution in PBS) [µg/mL] | Concentration (ug/mL) Gel (7 d, Fmoc-FF/S gel) [µg/mL] | Concentration (ug/mL) Control (7 d, control solution in PBS) [µg/mL] | duration of sustained release from the gel (Fmoc-FF/S gel) | Compound | also measured
 | 10.34 | 0.67 | 9.08 | 22.71 | 6.37 | 0.90 | 2.98 | 0.07 | 5.15 | 0 | 1.49 | 0 | 0.27 | 0 | 0.11 | 0 | 0 | 0 | 5 days | CC(C)NCC(O)COc1ccc(CCOCC2CC2)cc1 (stereo not drawn) [Betaxolol] | release time from the gel (10 mM Fmoc-FF/S gel): 5 days; release time from the control insert (control solution in PBS): 9 h
altered significantly | 17.8 | 0.03 | 7.02 | 36.4 | 5.38 | 0.06 | 4.61 | 0 | 7.78 | 0 | 7.49 | 0 | 4.02 | 0 | 3.81 | 0 | 2.05 | 0 | > 7 days and 7 days | CC(C)NCC(O)COc1cccc2ccccc12 (stereo not drawn) [Propranolol] | time by which drug release was below measurable limits (control): ≤ 9 h; time over which significant drug concentration continued to be released (concentration of the peptides 10 mM): ≥ 72 h; time over which significant drug concentration continued to be released (concentration of the peptides 40 mM): ≥ 72 h

The remaining lines, values behind:

Compound | release profile from the hydrogel compared with control PBS solution | Concentration (ug/mL) Control [1] [µg/mL] | Concentration (ug/mL) Gel [2] [µg/mL] | Concentration (ug/mL) Gel (3 h, Fmoc-FF/S gel) [µg/mL] | Concentration (ug/mL) Control (3 h, control solution in PBS) [µg/mL] | Concentration (ug/mL) Gel (6 h, Fmoc-FF/S gel) [µg/mL] | Concentration (ug/mL) Control (6 h, control solution in PBS) [µg/mL] | Concentration (ug/mL) Gel (9 h, Fmoc-FF/S gel) [µg/mL] | Concentration (ug/mL) Control (9 h, control solution in PBS) [µg/mL] | Concentration (ug/mL) Gel (24 h, Fmoc-FF/S gel) [µg/mL] | Concentration (ug/mL) Control (24 h, control solution in PBS) [µg/mL] | Concentration (ug/mL) Gel (48 h, Fmoc-FF/S gel) [µg/mL] | Concentration (ug/mL) Control (48 h, control solution in PBS) [µg/mL] | Concentration (ug/mL) Gel (72 h, Fmoc-FF/S gel) [µg/mL] | Concentration (ug/mL) Control (72 h, control solution in PBS) [µg/mL] | Concentration (ug/mL) Gel (5 d, Fmoc-FF/S gel) [µg/mL] | Concentration (ug/mL) Control (5 d, control solution in PBS) [µg/mL] | Concentration (ug/mL) Gel (7 d, Fmoc-FF/S gel) [µg/mL] | Concentration (ug/mL) Control (7 d, control solution in PBS) [µg/mL] | duration of sustained release from the gel (Fmoc-FF/S gel) | also measured
CC(C)n1c(/C=C/[C@H](O)C[C@H](O)CC(=O)O)c(-c2ccc(F)cc2)c2ccccc21 (racemic) [Fluvastatin] | slower |  |  |  |  |  |  |  |  |  |  |  |  |  |  |  |  |  |  |  | 
CC[C@H](C)C(=O)O[C@H]1C[C@H](O)C=C2C=C[C@H](C)[C@H](CC[C@@H](O)C[C@@H](O)CC(=O)O)[C@H]21 [Pravastatin] | slower |  |  |  |  |  |  |  |  |  |  |  |  |  |  |  |  |  |  |  | 
C=C[C@H]1C[N@]2CC[C@H]1C[C@@H]2[C@@H](O)c1ccnc2ccc(OC)cc12 [Quinidine] |  |  |  |  |  |  |  |  |  |  |  |  |  |  |  |  |  |  |  | 7 days | drug still present in the remaining gel residue at the end of the experiment (10 mM Fmoc-FF/S gel, HPLC, end of 7-day study): 4.5%; release time from the control insert (control solution in PBS): 9 h; total release corresponding to control results (control solution in PBS): 85%
CC(C)NCC(O)c1ccc(NS(C)(=O)=O)cc1 (stereo not drawn) [Sotalol] | slower |  |  |  |  |  |  |  |  |  |  |  |  |  |  |  |  |  |  |  | 
